Like-named read-outs stand apart in the source and are kept apart here.
Experiments:
plasma protein = settings: cited from earlier work; for fp_Human (free fraction in plasma): human, collected value, median if multiple values were reported, ref: Table S1
[1] = human, intravenous; median if multiple values were reported; ref numbers in Table S1; cited from earlier work
[2] = cited from earlier work
[3] = human
[4] = human, intravenous, median if multiple values were reported, ref numbers in Table S1

CC(=O)Nc1ccc(O)cc1 [Acetaminophen]
fp_Human (free fraction in plasma) (plasma protein): 0.710 | in vivo Vd_(L/kg)_Human [1]: 1.000 L/kg

Oc1ncnc2[nH]ncc12 [Allopurinol]
in vivo Vd_(L/kg)_Human [1]: 0.580 L/kg

Cc1nnc2n1-c1ccc(Cl)cc1C(c1ccccc1)=NC2 [Alprazolam]
in vivo Vd_(L/kg)_Human [1]: 0.800 L/kg | in vivo CL_(L/hr/kg)_Human [2, 4]: 0.044 L/h/kg

C=CCc1ccccc1OCC(O)CNC(C)C (centres unmarked) [Alprenolol]
in vivo Vd_(L/kg)_Human [1]: 3.200 L/kg | in vivo CL_(L/hr/kg)_Human [2, 4]: 0.900 L/h/kg

CCCCc1oc2ccccc2c1C(=O)c1cc(I)c(OCCN(CC)CC)c(I)c1 [Amiodarone]
in vivo CL_(L/hr/kg)_Human [2, 4]: 0.114 L/h/kg

CN(C)CCC=C1c2ccccc2CCc2ccccc21 [Amitriptyline]
in vivo Vd_(L/kg)_Human [1]: 8.700 L/kg | in vivo CL_(L/hr/kg)_Human [2, 4]: 0.593 L/h/kg

CC1(C)S[C@@H]2[C@H](NC(=O)[C@H](N)c3ccc(O)cc3)C(=O)N2[C@H]1C(=O)O [Amoxicillin]
in vivo Vd_(L/kg)_Human [1]: 0.250 L/kg | in vivo CL_(L/hr/kg)_Human [2, 4]: 0.198 L/h/kg

C[C@@H](O[C@H]1OCCN(Cc2n[nH]c(=O)[nH]2)[C@H]1c1ccc(F)cc1)c1cc(C(F)(F)F)cc(C(F)(F)F)c1 [Aprepitant]
in vivo Vd_(L/kg)_Human [1]: 0.940 L/kg

CC(C)NCC(O)COc1ccc(CC(N)=O)cc1 (centres unmarked) [Atenolol]
in vivo CL_(L/hr/kg)_Human [2, 4]: 0.150 L/h/kg

C[C@H]1C[C@H]2[C@@H]3CCC4=CC(=O)C=C[C@]4(C)[C@@]3(F)[C@@H](O)C[C@]2(C)[C@@]1(O)C(=O)CO [Betamethasone]
in vivo CL_(L/hr/kg)_Human [2, 4]: 0.168 L/h/kg

OC(CCN1CCCCC1)(c1ccccc1)C1CC2C=CC1C2 (centres unmarked) [Biperiden]
in vivo MRT_(hr)_Human [3]: 12.639 h | in vivo Vd_(L/kg)_Human [1]: 9.100 L/kg

CC(C)NCC(O)COc1ccc(COCCOC(C)C)cc1 (centres unmarked) [Bisoprolol]
fp_Human (free fraction in plasma) (plasma protein): 0.830 | in vivo Vd_(L/kg)_Human [1]: 2.400 L/kg | in vivo CL_(L/hr/kg)_Human [2, 4]: 0.222 L/h/kg

CCCC1O[C@@H]2C[C@H]3[C@@H]4CCC5=CC(=O)C=C[C@]5(C)[C@H]4[C@@H](O)C[C@]3(C)[C@]2(C(=O)CO)O1 (some centres unmarked) [Budesonide]
in vivo Vd_(L/kg)_Human [1]: 3.900 L/kg | in vivo CL_(L/hr/kg)_Human [2, 4]: 1.200 L/h/kg

COc1ccccc1OCCNCC(O)COc1cccc2[nH]c3ccccc3c12 (centres unmarked) [Carvedilol]
in vivo Vd_(L/kg)_Human [1]: 1.300 L/kg | in vivo CL_(L/hr/kg)_Human [2, 4]: 0.495 L/h/kg

C=CC1=C(C(=O)O)N2C(=O)[C@@H](NC(=O)/C(=N\OCC(=O)O)c3csc(N)n3)[C@H]2SC1 [Cefixime]
in vivo Vd_(L/kg)_Human [1]: 0.240 L/kg | in vivo CL_(L/hr/kg)_Human [2, 4]: 0.060 L/h/kg

CCC[C@@H]1C[C@@H](C(=O)N[C@@H]([C@H]2O[C@H](SC)[C@H](O)[C@@H](O)[C@H]2O)[C@H](C)Cl)N(C)C1 [Clindamycin]
in vivo CL_(L/hr/kg)_Human [2, 4]: 0.270 L/h/kg

CN1CCN(C2=Nc3cc(Cl)ccc3Nc3ccccc32)CC1 [Clozapine]
in vivo MRT_(hr)_Human [3]: 10.667 h | in vivo Vd_(L/kg)_Human [1]: 1.600 L/kg

C[C@@H]1C[C@H]2[C@@H]3CCC4=CC(=O)C=C[C@]4(C)[C@@]3(F)[C@@H](O)C[C@]2(C)[C@@]1(O)C(=O)CO [Dexamethasone]
in vivo CL_(L/hr/kg)_Human [2, 4]: 0.198 L/h/kg

CN1C(=O)CN=C(c2ccccc2)c2cc(Cl)ccc21 [Diazepam]
in vivo CL_(L/hr/kg)_Human [2, 4]: 0.023 L/h/kg

CCN(CC)C(=O)/C(C#N)=C/c1cc(O)c(O)c([N+](=O)[O-])c1 [Entacapone]
in vivo Vd_(L/kg)_Human [1]: 0.270 L/kg | in vivo CL_(L/hr/kg)_Human [2, 4]: 0.720 L/h/kg

CC[C@H]1OC(=O)[C@H](C)[C@@H](O[C@H]2C[C@@](C)(OC)[C@@H](O)[C@H](C)O2)[C@H](C)[C@@H](O[C@@H]2O[C@H](C)C[C@H](N(C)C)[C@H]2O)[C@](C)(O)C[C@@H](C)C(=O)[C@H](C)[C@@H](O)[C@]1(C)O [Erythromycin]
fp_Human (free fraction in plasma) (plasma protein): 0.220

CCOC(=O)c1ncn2c1CN(C)C(=O)c1cc(F)ccc1-2 [Flumazenil]
in vivo CL_(L/hr/kg)_Human [2, 4]: 0.960 L/h/kg

O=c1[nH]cc(F)c(=O)[nH]1 [Fluorouracil]
fp_Human (free fraction in plasma) (plasma protein): 0.770

O=C(O)P(=O)(O)O [Foscarnet]
in vivo Vd_(L/kg)_Human [1]: 0.500 L/kg | in vivo CL_(L/hr/kg)_Human [2, 4]: 0.126 L/h/kg

NS(=O)(=O)c1cc(C(=O)O)c(NCc2ccco2)cc1Cl [Furosemide]
in vivo CL_(L/hr/kg)_Human [2, 4]: 0.096 L/h/kg

O=C(/C=C/c1c(C(=O)O)[nH]c2cc(Cl)cc(Cl)c12)Nc1ccccc1 [Gavestinel]
fp_Human (plasma protein): 0.002

CCC1=C(C)CN(C(=O)NCCc2ccc(S(=O)(=O)NC(=O)N[C@H]3CC[C@H](C)CC3)cc2)C1=O [Glimepiride]
fp_Human (free fraction in plasma) (plasma protein): 0.028 | in vivo Vd_(L/kg)_Human [1]: 0.190 L/kg | in vivo CL_(L/hr/kg)_Human [2, 4]: 0.034 L/h/kg

CC#CCC(C)[C@H](O)/C=C/[C@@H]1[C@H]2C/C(=C/CCCC(=O)O)C[C@H]2C[C@H]1O (some centres unmarked) [Iloprost]
fp_Human (free fraction in plasma) (plasma protein): 0.400 | in vivo Vd_(L/kg)_Human [1]: 0.385 L/kg | in vivo CL_(L/hr/kg)_Human [2, 4]: 0.960 L/h/kg

CN(C)CCCN1c2ccccc2CCc2ccccc21 [Imipramine]
in vivo Vd_(L/kg)_Human [1]: 12.000 L/kg

CCC(C)n1ncn(-c2ccc(N3CCN(c4ccc(OCC5COC(Cn6cncn6)(c6ccc(Cl)cc6Cl)O5)cc4)CC3)cc2)c1=O (centres unmarked) [Itraconazole]
in vivo Vd_(L/kg)_Human [1]: 7.400 L/kg | in vivo CL_(L/hr/kg)_Human [2, 4]: 0.306 L/h/kg

CC(CCc1ccccc1)NCC(O)c1ccc(O)c(C(N)=O)c1 (centres unmarked) [Labetalol]
fp_Human (free fraction in plasma) (plasma protein): 0.500 | in vivo CL_(L/hr/kg)_Human [2, 4]: 1.380 L/h/kg

Cc1c(OCC(F)(F)F)ccnc1C[S+]([O-])c1nc2ccccc2[nH]1 (centres unmarked) [Lansoprazole]
in vivo Vd_(L/kg)_Human [1]: 0.280 L/kg | in vivo CL_(L/hr/kg)_Human [2, 4]: 0.319 L/h/kg

CCN(CC)CC(=O)Nc1c(C)cccc1C [Lidocaine]
in vivo CL_(L/hr/kg)_Human [2, 4]: 0.756 L/h/kg

CC[C@H](C)C(=O)O[C@H]1C[C@@H](C)C=C2C=C[C@H](C)[C@H](CC[C@@H]3C[C@@H](O)CC(=O)O3)[C@H]21 [Lovastatin]
in vivo Vd_(L/kg)_Human [1]: 0.870 L/kg | in vivo CL_(L/hr/kg)_Human [2, 4]: 0.432 L/h/kg

CN(c1nc2ccccc2s1)C1CCN(C[C@H](O)COc2ccc(F)c(F)c2)CC1 [Lubeluzole]
fp_Human (free fraction in plasma) (plasma protein): 0.003 | in vivo CL_(L/hr/kg)_Human [2, 4]: 0.102 L/h/kg

CN1CC[C@]23c4c5ccc(O)c4O[C@H]2[C@@H](O)C=C[C@H]3[C@H]1C5 [Morphine]
in vivo CL_(L/hr/kg)_Human [2, 4]: 1.500 L/h/kg

C=CCN1CC[C@]23c4c5ccc(O)c4O[C@H]2C(=O)CC[C@@]3(O)[C@H]1C5 [Naloxone]
in vivo Vd_(L/kg)_Human [1]: 1.700 L/kg

COc1ccc2cc([C@H](C)C(=O)O)ccc2c1 [Naproxen]
in vivo CL_(L/hr/kg)_Human [2, 4]: 0.004 L/h/kg

Cc1ccnc2c1NC(=O)c1cccnc1N2C1CC1 [Nevirapine]
in vivo Vd_(L/kg)_Human [1]: 1.300 L/kg | in vivo CL_(L/hr/kg)_Human [2, 4]: 0.018 L/h/kg

COc1ccc2[nH]c([S+]([O-])Cc3ncc(C)c(OC)c3C)nc2c1 (centres unmarked) [Omeprazole]
in vivo Vd_(L/kg)_Human [1]: 0.240 L/kg | in vivo CL_(L/hr/kg)_Human [2, 4]: 0.504 L/h/kg

O=C1Nc2ccc(Cl)cc2C(c2ccccc2)=NC1O (centres unmarked) [Oxazepam]
in vivo CL_(L/hr/kg)_Human ([2]; in vivo, iv): 0.066 L/h/kg

COc1ccc2c3c1O[C@H]1C(=O)CC[C@@]4(O)[C@@H](C2)N(C)CC[C@]314 [Oxycodone]
fp_Human (free fraction in plasma) (plasma protein): 0.550 | in vivo CL_(L/hr/kg)_Human [2, 4]: 0.366 L/h/kg

CCN(CC)CCNC(=O)c1ccc(N)cc1 [Procainamide]
fp_Human (plasma protein): 0.840

Cc1nc2n(c(=O)c1CCN1CCC(c3noc4cc(F)ccc34)CC1)CCCC2 [Risperidone]
fp_Human (plasma protein; free fraction in human plasma, median if multiple values reported, Reference of Table S1): 0.100

Cc1cc(NS(=O)(=O)c2ccc(N)cc2)no1 [Sulfamethoxazole]
in vivo CL_(L/hr/kg)_Human ([2]; human, intravenous, median if multiple values reported, Reference of Table S1): 0.020 L/h/kg

Reference: publication PMC8342319, “Predicting blood-to-plasma concentration ratios of drugs from chemical structures and volumes of distribution in humans” (Molecular Diversity, 2021)
